{
  "source": "patent US12070477B2",
  "about": "“Lactobacillus sp. strain having ability to inhibit growth of vaginal pathogenic microorganisms” (KoBioLabs, Inc., priority 2015, dated 2024)",
  "test_system": "Gardnerella vaginalis",
  "assay": "Gardnerella vaginalis-infected mouse vaginitis model, microbiome analysis after vaginal administration",
  "type": "in vivo, female mice (BALB/c mice)",
  "experimental": "The hormone control and estrous cycle were induced by intraperitoneally injecting 0.5 mg of beta-esteradiol 3-benzonate to female mice (BALB/c mice). After three days, they were directly infected with Gardnerella vaginalis in the vagina at a concentration of 1×10^7 CFU per mouse to establish a vaginitis animal model. Thereafter, four kinds of Lactobacillus isolates corresponding to 10^8 to 10^9 CFU per mouse were vaginally administered (7 mice per group). On day 2, the total bacterial DNA was extracted from the vaginal samples washed with 0.1 mL of PBS (Phosphate Buffered Saline) and microbiome community analysis was performed to measure the relative abundance of Gardnerella vaginalis and other vaginal microbiota. […] The analyzed sequences were subjected to microbiome analysis including taxon profile, α-diversity and β-diversity showing the difference in community structure between groups through Qiime pipeline, and the change in the amount of Gardnerella vaginalis pathogens upon the administration of Lactobacillus isolates was evaluated by calculating relative abundances (/% GV treatment group).",
  "data": [
    {"smiles": "Cc1ncc([N+](=O)[O-])n1CCO", "note": "[MTZ, metronidazole]", "values": [
      {"measurement": "community structure of the vaginal microflora (Unweighted UniFrac distance)", "setting": "compared to Gardnerella vaginalis-infected control group, after 2 days of administration", "value": "no change in the community structure"},
      {"measurement": "Relative abundance (/% GV group) of Gardnerella vaginalis", "setting": "vaginal administration after infection, day 2, 16S microbiome analysis, GV group = 100", "value": "74.9 /% GV group"}
    ]}
  ]
}
